The conditions of data set [1]: 101.3 kPa, Liquid; for viscosity: Capillary tube (Ostwald / Ubbelohde) method; for mass density: Vibrating tube method.
Data set [2] in a line: xn = mol fraction of the nth substance listed. As to conditions: 101.3 kPa, Liquid, x2 = 0; for viscosity: Capillary tube (Ostwald / Ubbelohde) method; for mass density: Vibrating tube method.

Numbers after ± are expanded uncertainties.

For orientation: viscosity means the internal friction of a fluid under shear. As usually defined, the mass density is the mass of a sample divided by its volume.

Take `CC(O)CNCC(C)O` (stereo unspecified) [N-(2-hydroxypropyl)-2-hydroxy-1-propanamine]: the viscosity in data set [1] (318.65 K) is 186.6 ± 4.6 mPa·s; in data set [1] (323.15 K), 125.7 ± 2.3 mPa·s; in data set [1] (333.15 K), 57.99 ± 0.62 mPa·s; in data set [1] (343.15 K), 29.55 ± 0.33 mPa·s. The mass density in data set [1] (318.65 K) came out at 988.22 ± 1 kg/m3; in data set [1] (323.15 K), 984.9 ± 1 kg/m3; in data set [1] (333.15 K), 977.3 ± 1 kg/m3; in data set [1] (343.15 K), 969.58 ± 0.99 kg/m3.
With `O` [water], the viscosity came out at 0.89 ± 0.006 mPa·s in data set [1] (298.15 K); 0.653 ± 0.004 mPa·s in data set [1] (313.15 K); 0.595 ± 0.004 mPa·s in data set [1] (318.65 K); 0.547 ± 0.004 mPa·s in data set [1] (323.15 K); 0.466 ± 0.003 mPa·s in data set [1] (333.15 K); 0.405 ± 0.003 mPa·s in data set [1] (343.15 K). The mass density in data set [1] (323.15 K) is recorded as 988.04 ± 0.08 kg/m3; in data set [1] (333.15 K), 983.12 ± 0.08 kg/m3; in data set [1] (343.15 K) it was 977.77 ± 0.08 kg/m3.
For `O` [water] + CC(O)CNCC(C)O, the viscosity in data set [2] (298.15 K) was 0.89 ± 0.006 mPa·s; in data set [2] (313.15 K), 0.653 ± 0.004 mPa·s; in data set [2] (318.65 K), 0.595 ± 0.004 mPa·s; in data set [2] (323.15 K) it was 0.547 ± 0.004 mPa·s; in data set [2] (333.15 K) it was 0.466 ± 0.003 mPa·s; in data set [2] (343.15 K), 0.405 ± 0.003 mPa·s. Besides, the mass density in data set [2] (323.15 K) was 988.04 ± 0.08 kg/m3; in data set [2] (333.15 K) it was 983.12 ± 0.08 kg/m3; in data set [2] (343.15 K) it was 977.77 ± 0.08 kg/m3.

For the origin of these results see the NIST ThermoML archive (doi:10.1021/je030132i).
